Data: patent US9611246B2, “Compositions, apparatus, systems, and methods for resolving electronic excited states” (HALLSTAR INNOVATIONS CORP., priority 2012, dated 2017)

Test system: HaCat cells
Assay: Cell viability of ALA-treated HaCat cells after red light irradiation
Type: cell-based, human
Details: 1 mM
Description: HaCat cells were seeded in 96-well plates and grown to confluence. Confluent cells were treated with 8 mM ALA for 2 hours. Cells then received 1 mM of Formula II(a)(1), II(b)(1)+II(c)(1), or II(bk). Following a one-hour incubation, cells were irradiated for 3 minutes and immediately washed with naïve cell culture media once. Additional cell culture media was added and the cells were cultured for 24 hours. A cell viabilty agent was added to each well and incubated for 2 hours. Cell viability was analyzed at the conclusion of this incubation by measuring the fluorescence intensity (excitation/emission 560/590) of each well. Results shown in FIG. 26 indicate that control cells (without conjugated fused polycyclic compound treatment) were almost completely killed by phototoxic ROS induced by ALA and light irradiation. Cell viability (cell metabolic activity) of light irradiated cells (without conjugated fused polycyclic) was only […] of normal cell control (no treatment). […] About 50% of Formula II(a)(1) treated cells survived, while cells without conjugated fused polycyclic compound exposure and cells treated with II(bk) were almost 100% dead. […] The Formula II(a)(1) was also observed to protect cells from light irradiation induced injury (relative cell viability 61%). […]

COC(=O)C(C#N)=C1c2ccccc2C(=O)c2ccccc21 [Formula II(a)(1)]
relative cell viability (8 mM ALA, 3 minutes irradiation, 24 hours culture, vs normal cell control): 61%
treated cells that survived (after irradiation): About 50%
